According to patent US12396458B2, “Fused ring substituted aromatic compound and preparation method therefor, herbicidal composition, and use thereof” (Qingdao Kingagroot Chemical Compound Co., Ltd., priority 2020, dated 2025):

Columns and labels:
Assay in all cases: Weeding effect in post-emergence stage (greenhouse pot test)
Assay type in all cases: in vivo
[1] = tested on: Conyza japonica; details: post-emergence, 3 weeks after application, fresh weight control rate
Source text: (§1) The activity level criteria for plant damage (i.e., growth control rate) are as follows:
(§2) Level 5: growth control rate is above 85%; • Level 4: growth control rate is greater than or equal to 60% and less than 85%; • Level 3: growth control rate is greater than or equal to 40% and less than 60%; • Level 2: growth control rate is greater than or equal to 20% and less than 40%; • Level 1: growth control rate is greater than or equal to 5% and less than 20%; • Level 0: growth control rate is less than 5%.
(§3) The above growth control rates are fresh weight control rates.
(§4) Experiment on weeding effect in post-emergence stage:
(§5) Monocotyledonous and dicotyledonous weed seeds (Descurainia sophia, Capsella bursa-pastoris, Abutilon theophrasti, Galium aparine, Stellaria media, Lithospermum arvense, Rorippa indica, Alopecurus aequalis, Alopecurus japonicus, Eleusine indica, Beckmannia syzigachne, Sclerochloa dura, Phleum paniculatum, Veronica didyma Tenore, Bromus japonicus, Aegilops tauschii, Phalaris arundinacea, Amaranthus retrojlexus, Chenopodiaceae, Commelina communis, Sonchus arvensis, convolvulus arvensis, Cirsium setosum, Solanum nigrum, Acalypha australis, Digitaria sanguinalis, Echinochloa crusgalli, Setaria viridis, Setaria glauca, Leptochloa chinensis, Monochoria vaginalis, Sagittaria trifolia, Scirpus juncoides, Cyperus rotundus, Cyperus iria, Cyperus difformis, Fimbristylis, Portulaca oleracea, Xanthium sibiricum, Pharbitis nil, Conyza japonica, etc.) and major crop seeds (wheat, corn, rice, soybean, cotton, oilseed rape, millet, sorghum, potato, sesame, ricinus, etc.) were placed in plastic pots filled with soil, then covered with 0.5-2 cm of soil, allowed to grow in a good greenhouse environment. After 2 weeks of sowing, the test plants were treated in the 2-3 leaf stage. The tested compounds of the present invention were respectively dissolved in acetone, then added with Tween 80 and 1.5 liter/ha of emulsifiable concentrate of methyl oleate as synergist, diluted with a certain amount of water to obtain a solution with a certain concentration, and sprayed with a spray tower onto the plants. After the application, the plants were cultured for 3 weeks in the greenhouse, and then the experimental results of the weeding were counted. The doses of the used compounds were 500, 250, 125, 60, 15, 7.5 g a.i./ha, and the averages were obtained by repeating for three times.

[2] = tested on: Alopecurus japonicus; details: dose 15 g a.i./ha, 3 weeks after application, fresh weight control rate
Source text: as §1, §2, §3, §4, §5

[3] = tested on: Capsella bursa-pastoris; details: 3 weeks after application, fresh weight control rate
Source text: as §1, §2, §3, §4, §5

[4] = tested on: Beckmannia syzigachne; details: dose 15 g a.i./ha, 3 weeks after application, fresh weight control rate
Source text: as §1, §2, §3, §4, §5

SMILES | Activity level (growth control rate), Conyza japonica ([1]; dose 15 g a.i./ha) | Activity level (growth control rate), Alopecurus japonicus [2] | Activity level (growth control rate), Capsella bursa-pastoris ([3]; dose 15 g a.i./ha) | Activity level (growth control rate), Beckmannia syzigachne [4] | Activity level (growth control rate), Conyza japonica ([1]; dose 125 g a.i./ha) | Activity level (growth control rate), Capsella bursa-pastoris ([3]; dose 125 g a.i./ha)
COC(=O)C12CCCC1(O)C(c1cc(-n3c(=O)cc(C(F)(F)F)n(C)c3=O)c(F)cc1Cl)=NO2 (stereo not drawn) [Compound 351] | 4 (Level 4: growth control rate is greater than or equal to 60% and less than 85%) |  |  |  |  | 
COC(=O)C12CCCC1C(c1cc(/N=c3\sc(=O)n4n3CCCC4)c(F)cc1Cl)=NO2 (stereo not drawn) [Compound 575] | 4 (Level 4: growth control rate is greater than or equal to 60% and less than 85%) | 4 (Level 4: growth control rate is greater than or equal to 60% and less than 85%) | 5 (Level 5: growth control rate is above 85%) |  |  | 
CCOC(=O)C12CCCC1C(c1cc(-n3c(=O)cc(C(F)(F)F)n(C)c3=O)c(F)cc1Cl)=NO2 (stereo not drawn) [Compound 215] | 4 (Level 4: growth control rate is greater than or equal to 60% and less than 85%) | 5 (Level 5: growth control rate is above 85%) | 5 (Level 5: growth control rate is above 85%) | 5 (Level 5: growth control rate is above 85%) |  | 
COC(=O)C12CCCC1C(c1cc(-n3c(=O)cc(C(F)(F)F)n(C)c3=O)c(F)cc1Cl)=NO2 (stereo not drawn) [Compound 214] | 5 (Level 5: growth control rate is above 85%) | 5 (Level 5: growth control rate is above 85%) | 5 (Level 5: growth control rate is above 85%) | 5 (Level 5: growth control rate is above 85%) |  | 
COC(=O)C12CCC(O)C1C(c1cc(-n3c(=O)cc(C(F)(F)F)n(C)c3=O)c(F)cc1Cl)=NO2 (stereo not drawn) [Compound 444] |  | 4 (Level 4: growth control rate is greater than or equal to 60% and less than 85%) | 5 (Level 5: growth control rate is above 85%) |  |  | 
CCOC(=O)C12ON=C(c3cc(-n4c(=O)cc(C(F)(F)F)n(C)c4=O)c(F)cc3Cl)C1CCC2F (stereo not drawn) [Compound 472] | 4 (Level 4: growth control rate is greater than or equal to 60% and less than 85%) |  | 5 (Level 5: growth control rate is above 85%) |  |  | 
CCSC(=O)C12CCCC1C(c1cc(-n3c(=O)cc(C(F)(F)F)n(C)c3=O)c(F)cc1Cl)=NO2 (stereo not drawn) [Compound 334] | 4 (Level 4: growth control rate is greater than or equal to 60% and less than 85%) |  | 5 (Level 5: growth control rate is above 85%) |  |  | 
COC(=O)C12CCCC1C(c1cc(/N=c3\scc(C(F)(F)F)n3C)c(F)cc1Cl)=NO2 (stereo not drawn) [Compound 574] | 5 (Level 5: growth control rate is above 85%) |  | 5 (Level 5: growth control rate is above 85%) |  |  | 
COC(=O)C12CC(C)CC1C(c1cc(-n3c(=O)cc(C(F)(F)F)n(C)c3=O)c(F)cc1Cl)=NO2 (stereo not drawn) [Compound 456] | 4 (Level 4: growth control rate is greater than or equal to 60% and less than 85%) |  | 5 (Level 5: growth control rate is above 85%) |  |  | 
Cn1c(C(F)(F)F)cc(=O)n(-c2cc(C3=NOC4(C(=O)OCc5ccccc5F)CCCC34)c(Cl)cc2F)c1=O (stereo not drawn) [Compound 264] | 4 (Level 4: growth control rate is greater than or equal to 60% and less than 85%) |  | 5 (Level 5: growth control rate is above 85%) |  |  | 
COC(=O)C12CCCC1C(c1cc(-c3ncc(C(F)(F)F)c(C)c3Cl)c(F)cc1Cl)=NO2 (stereo not drawn) [Compound 586] |  |  |  |  | 5 (Level 5: growth control rate is above 85%) | 5 (Level 5: growth control rate is above 85%)
COC(=O)C12CCCC1C(c1cc(-n3c(=O)cc(C(F)(F)F)n(C)c3=O)c(F)cc1C#N)=NO2 (stereo not drawn) [Compound 212] | 5 (Level 5: growth control rate is above 85%) |  | 5 (Level 5: growth control rate is above 85%) |  |  | 
COC(=O)C1CC2C(c3cc(-n4c(=O)cc(C(F)(F)F)n(C)c4=O)c(F)cc3Cl)=NOC2(C(=O)OC)C1 (stereo not drawn) [Compound 464] |  | 5 (Level 5: growth control rate is above 85%) | 5 (Level 5: growth control rate is above 85%) |  |  | 
COC(=O)C12CCCC1C(c1cc(-c3ncc(S(C)(=O)=O)cc3Cl)c(F)cc1Cl)=NO2 (stereo not drawn) [Compound 584] |  |  |  |  | 5 (Level 5: growth control rate is above 85%) | 5 (Level 5: growth control rate is above 85%)
COC(=O)C12CCCC1C(c1cc(-c3nn(C)c(C(F)(F)F)cc3=O)c(F)cc1Cl)=NO2 (stereo not drawn) [Compound 579] |  | 4 (Level 4: growth control rate is greater than or equal to 60% and less than 85%) | 5 (Level 5: growth control rate is above 85%) |  |  | 
COC(=O)C12CCCC1C(c1cc(-c3nnc(C(F)(F)F)cc3OC)c(F)cc1Cl)=NO2 (stereo not drawn) [Compound 578] | 4 (Level 4: growth control rate is greater than or equal to 60% and less than 85%) | 5 (Level 5: growth control rate is above 85%) | 5 (Level 5: growth control rate is above 85%) |  |  | 
COC(=O)C12CCCC1C(c1cc(-c3nnc(C(F)(F)F)cc3O)c(F)cc1Cl)=NO2 (stereo not drawn) [Compound 577] |  |  |  |  | 5 (Level 5: growth control rate is above 85%) | 5 (Level 5: growth control rate is above 85%)
COC(=O)C12CCCC1C(c1cc(NC(=O)C3=C(C(=O)O)CCCC3)c(F)cc1Cl)=NO2 (stereo not drawn) [Compound 597] | 4 (Level 4: growth control rate is greater than or equal to 60% and less than 85%) |  | 5 (Level 5: growth control rate is above 85%) |  |  | 
COC(=O)C12CCCC1C(c1cc(-n3c(=O)cc(C(F)(F)F)n(C)c3=O)c(F)cc1C(F)(F)F)=NO2 (stereo not drawn) [Compound 211] | 5 (Level 5: growth control rate is above 85%) |  | 5 (Level 5: growth control rate is above 85%) |  |  | 
COC(=O)C12CSCC1C(c1cc(-n3c(=O)cc(C(F)(F)F)n(C)c3=O)c(F)cc1Cl)=NO2 (stereo not drawn) [Compound 374] |  |  |  |  | 5 (Level 5: growth control rate is above 85%) | 5 (Level 5: growth control rate is above 85%)
